Where two headings read alike, the source gives them in different places.
What was measured:
[1] = Cytotoxicity against mouse peritoneal macrophages; type: cell-based
Procedure: (§1) A previously established protocol was followed except that 30 mM dexamethasone in DMSO was used as the positive control and each test compound (30 mM in DMSO) was diluted to 1–30 μM at r.t. before the experiment.

[2] = tested on: LPS-induced NO production in mouse peritoneal macrophages (PEMФ); assay: Inhibition of lipopolysaccharide (LPS)-induced nitric oxide (NO) production; type: cell-based; conditions: Peritoneal macrophage, compounds tested at 1–30 μM, read-out: IC50, inhibitory activity against LPS-induced NO production
Procedure: All compounds were tested for their in vitro anti-inflammatory activities. Nitric oxide (NO) is an important signaling molecule that is involved in the regulation of diverse physiological and pathological processes. Overproduction of NO is associated with various human diseases, particularly acute and chronic inflammation, while the level of NO can reflect the degree of inflammation.
as §1

[3] = mouse peritoneal macrophages, read-out: CC50, cytotoxicity against mouse peritoneal macrophages

SMILES: COC(=O)C1=CCCC2(C)OC2CCC(C(=O)OC)=CC=C(C(C)C)CC1 (stereo not shown) [Compound 1, Locrassumin A]
- CC50 [1, 3]: > 60 µM
- IC50 [2]: 17 ± 3 µM

SMILES: COC1(C)CC=CC(C)(O)CCC2=C(C)COC2C=C(C)CCC1O (stereo not drawn) [Compound 7, (2R*,7R*,8S*,12S*,1Z,3E,10E)-8-methoxy-2,16-epoxycembra-1(15),3,10-trien-7,12-diol]
- CC50 [1, 3]: > 60 µM
- IC50 [2]: 13 ± 2 µM

SMILES: CC1=C2CC/C(C)=C/CC[C@@]3(C)O[C@@H]3CC/C(C)=C/[C@H]2OC1=O [Compound 12, ent-sarcophine]
- CC50 [1]: > 60 µM
- IC50 [2]: 24 ± 2 µM

SMILES: COC(=O)/C1=C\CC[C@@]2(C)O[C@@H]2CC/C(C(=O)OC)=C/C=C(/C(C)C)CC1 [Compound 13, sarcophytonolide O]
- CC50 [1, 3]: > 60 µM
- IC50 [2]: 8 ± 1 µM

SMILES: COC(=O)/C1=C\C=C(\C(C)C)CCC2=CCC[C@](C)(OC2=O)C(=O)CC1 [Compound 17, ketoemblide]
- CC50 [1, 3]: > 60 µM
- IC50 [2]: 12 ± 2 µM
